# In patent publication US8114900B2, “Amorphous carvedilol dihydrogen phosphate” (Teva Pharmaceutical Industries Ltd., priority 2006, dated 2012):
# Where two headings read alike, the source gives them in different places.
# How the values were obtained:
# [1] = cited from earlier work
# [2] = Solubility of solid forms at pH=7 and 25° C.; type: physicochemical
# Protocol: The amorphous form (1:1) of the present invention has higher solubility with compared to Form I at pH=7 and 25° C.: […]
# [3] = Stability upon heating under extreme heat conditions (oven); type: physicochemical; conditions: 80° C. for 30 min in oven
# [4] = % crystallinity calculation using the WinXRD 2.0 program; type: physicochemical; conditions: from XRD
# Excerpt: 2.0 program (FIGS. 46, 48, 39, 40, 43, 53, 50, 41).
# [5] = Particle size dimensions from microscope images; type: physicochemical
# Excerpt: It has the advantage of being able to reduce the particle size to a range of smaller dimensions (according to the requirements of the formulator who prepare the capsule or tablet), while when starting in advance with a smaller size of powder (Form I) limits this option. In addition, small particles, reduce flowability.
smiles,measurement,setting,value
"COc1ccccc1OCCNCC(O)COc1cccc2[nH]c3ccccc3c12 (racemic) [carvedilol, (±)-1-(Carbazol-4-yloxy)-3-[[2-(o-methoxyphenoxy)ethyl]amino]-2-propanol]",solubility,[1]; in alkaline media,< 1 µg/mL
same,solubility,"[1]; increases with decreasing pH, upper value",up to 100 μg/mL
"COc1ccccc1OCCNCC(O)COc1cccc2[nH]c3ccccc3c12.O=P(O)(O)O (centres unmarked) [Amorphous, carvedilol dihydrogen phosphate]",solubility,[2],14.9 µg/mL
"COc1ccccc1OCCNCC(O)COc1cccc2[nH]c3ccccc3c12.O=P(O)(O)O (centres unmarked) [Form F1, carvedilol dihydrogen phosphate]",stability upon heating (solid form),[3]; listed as F1,stable upon heating
same,% crystallinity,[4]; listed as F1,about 86%
same,particle size dimensions,[5]; listed as F1,50-150 μm
"COc1ccccc1OCCNCC(O)COc1cccc2[nH]c3ccccc3c12.O=P(O)(O)O (centres unmarked) [Form F, carvedilol dihydrogen phosphate]",stability upon heating (solid form),[3]; listed as F,stable upon heating
same,% crystallinity,[4]; listed as F,about 87%
same,particle size dimensions,[5]; listed as F,50-200 μm
"COc1ccccc1OCCNCC(O)COc1cccc2[nH]c3ccccc3c12.O=P(O)(O)O (centres unmarked) [Form I, carvedilol dihydrogen phosphate]",solubility,[2]; listed as I (′027),9.6 µg/mL
same,% crystallinity,[4]; listed as I,about 68%
same,particle size dimensions,[5]; listed as I,less than 20 μm
"COc1ccccc1OCCNCC(O)COc1cccc2[nH]c3ccccc3c12.O=P(O)(O)O (centres unmarked) [Form IV, reference compound]",stability upon heating (solid form),[3],transforms to amorphous form
"COc1ccccc1OCCNCC(O)COc1cccc2[nH]c3ccccc3c12.O=P(O)(O)O (centres unmarked) [Form L1, carvedilol dihydrogen phosphate]",stability upon heating (solid form),[3]; listed as L1,stable upon heating
same,% crystallinity,[4]; listed as L1,about 85%
"COc1ccccc1OCCNCC(O)COc1cccc2[nH]c3ccccc3c12.O=P(O)(O)O (centres unmarked) [Form L, carvedilol dihydrogen phosphate]",stability upon heating (solid form),[3]; listed as L,stable upon heating
same,% crystallinity,[4]; listed as L,about 88%
"COc1ccccc1OCCNCC(O)COc1cccc2[nH]c3ccccc3c12.O=P(O)(O)O (centres unmarked) [Form N, carvedilol dihydrogen phosphate]",% crystallinity,[4]; listed as N,about 86%
same,particle size dimensions,[5]; listed as N,200-400 μm
"COc1ccccc1OCCNCC(O)COc1cccc2[nH]c3ccccc3c12.O=P(O)(O)O (centres unmarked) [Form P, carvedilol dihydrogen phosphate]",% crystallinity,[4]; listed as P,about 85%
"COc1ccccc1OCCNCC(O)COc1cccc2[nH]c3ccccc3c12.O=P(O)(O)O (centres unmarked) [Form R, carvedilol dihydrogen phosphate]",stability upon heating (solid form),[3]; listed as R,stable upon heating
same,% crystallinity,[4]; listed as R,about 86%
"COc1ccccc1OCCNCC(O)COc1cccc2[nH]c3ccccc3c12.O=P(O)(O)O (centres unmarked) [Form Y, carvedilol dihydrogen phosphate]",particle size dimensions,[5]; listed as Y,20-100 μm
